Reference: paper PMC7608335 (Acta Pharmacologica Sinica, 2020)

Key:
[1] = molecular target: T1, CaV1.2 channel (α1C subunit) (Rattus norvegicus, UniProt P22002); experiment: whole-cell patch clamp; type: cell-based; settings: read-out: % of control at 100 nM
[2] = molecular target: T1, CaV1.2 channel (α1C subunit); experiment: whole-cell patch clamp of ICa1.[…]; type: cell-based; settings: read-out: % inhibition at 100 μM

Compound | remaining activity at 0.1 µM [1] [%] | inhibition at 100 µM [2] [%]
COC(=O)C1=C(C)NC(C)=C([N+](=O)[O-])[C@H]1c1ccccc1C(F)(F)F [Bay K 8644, (S)-(-)-methyl-1,4-dihydro-2,6-dimethyl-3-nitro-4-(2-trifluoromethylphenyl)pyridine-5-carboxylate] | 524 | 
O=C(c1ccc(F)cc1)C1CCN(CCn2c(=O)[nH]c3ccccc3c2=O)CC1 [ketanserin, 3-[2-[4-(4-fluorobenzoyl)piperidin-1-yl]ethyl]-1H-quinazoline-2,4-dione] |  | ~50
